Reference: ChEMBL document CHEMBL4665682, “Fragment Linking Strategies for Structure-Based Drug Design” (J Med Chem, 2020)

Assays:
[1] = molecular target: T1, Endothiapepsin (Cryphonectria parasitica, UniProt P11838); assay: Inhibition of Endothia parasitica endothiapepsin using Abz-Thr-Ile-Nle-p-nitro-Phe-Gln-Arg-NH2 as substrate by fluorescence method
T1 sequence (P11838 whole entry): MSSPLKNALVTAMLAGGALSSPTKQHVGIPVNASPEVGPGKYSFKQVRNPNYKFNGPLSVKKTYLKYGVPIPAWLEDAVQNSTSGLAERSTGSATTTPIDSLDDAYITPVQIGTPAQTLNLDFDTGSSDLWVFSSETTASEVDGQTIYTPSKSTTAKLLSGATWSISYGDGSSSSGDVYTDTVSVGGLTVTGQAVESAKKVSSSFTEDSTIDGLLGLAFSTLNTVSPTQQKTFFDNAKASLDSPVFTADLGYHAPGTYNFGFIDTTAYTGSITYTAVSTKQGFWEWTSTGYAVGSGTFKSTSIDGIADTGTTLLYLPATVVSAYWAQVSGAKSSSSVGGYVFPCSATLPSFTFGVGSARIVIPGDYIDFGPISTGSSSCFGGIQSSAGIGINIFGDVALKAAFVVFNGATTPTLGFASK

[2] = molecular target: T2, Heat shock protein HSP90 (Homo sapiens, UniProt P07900+P08238); assay: Inhibition of HSP90 (unknown origin) by confocal fluorescence-based biochemical assay; assay type: protein assay
[3] = Inhibition of Mycobacterium tuberculosis EthR assessed as reduction in protein interaction with immobilized ethA promoter DNA by SPR assay
[4] = Inhibition of human lung tryptase using Tosyl-Gly-Pro-Arg-p-nitroanilide as substrate preincubated for 5 mins followed by substrate addition and measured after 15 mins
[5] = Binding affinity to human E-selectin/IgG expressed in CHO-K1 cells by surface plasmon resonance
[6] = molecular target: Peptidyl-prolyl cis-trans isomerase B (Homo sapiens, UniProt P23284); assay: Inhibition of C-terminal His6-tagged CypB (unknown origin) expressed in Escherichia coli C41(DE3) using Suc-Ala-Ala-Cis-Pro-Phe-pNA as substrate by spectrophotometric analysis
[7] = Inhibition of C-terminal His6-tagged human CypD K133I mutant expressed in Escherichia coli BL21(DE3) using Suc-Ala-Ala-Cis-Pro-Phe-pNA as substrate by spectrophotometric analysis
[8] = molecular target: Peptidyl-prolyl cis-trans isomerase A (Homo sapiens, UniProt P62937)
[9] = molecular target: T2, Heat shock protein HSP90
Description: Binding affinity to N-terminal human HSP90 (D9 to E236 residues) expressed in Escherichia coli BL21(DE3) by 1H-13C HSQC-NMR spectroscopy

[10] = Binding affinity to FKBP (unknown origin) by 15N-HSQC-NMR spectroscopy; set-up: species or system Homo sapiens
[11] = molecular target: Bcl-2-like protein 1 (Homo sapiens, UniProt Q07817)
Description: Inhibition of FITC-labeled Bak BH3 peptide binding to His6-tagged GST-fused Bcl-xL (unknown origin) expressed in Escherichia coli BL21 preincubated for 10 mins followed by Bak BH3 peptide addition and measured after 30 mins by fluorescence polarization-based competitive binding assay

[12] = molecular target: T3, Chitinase B (Serratia marcescens, UniProt P11797); assay: Inhibition of Serratia marcescens chitinase B
T3 sequence (P11797 whole entry): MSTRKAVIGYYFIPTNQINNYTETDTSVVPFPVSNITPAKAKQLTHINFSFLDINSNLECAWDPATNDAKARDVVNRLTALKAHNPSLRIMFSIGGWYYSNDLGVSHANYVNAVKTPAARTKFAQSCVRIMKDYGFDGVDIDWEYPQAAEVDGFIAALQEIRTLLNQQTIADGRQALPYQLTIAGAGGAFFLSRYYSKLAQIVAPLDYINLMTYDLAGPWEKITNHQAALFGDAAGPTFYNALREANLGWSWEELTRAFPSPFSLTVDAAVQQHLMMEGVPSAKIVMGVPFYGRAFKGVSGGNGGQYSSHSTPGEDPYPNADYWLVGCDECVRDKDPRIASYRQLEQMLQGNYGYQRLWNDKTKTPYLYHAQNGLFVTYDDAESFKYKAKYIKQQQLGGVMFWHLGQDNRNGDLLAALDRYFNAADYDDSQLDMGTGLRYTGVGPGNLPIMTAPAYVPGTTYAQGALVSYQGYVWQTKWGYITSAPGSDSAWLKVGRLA

[13] = Inhibition of avidin (unknown origin)
[14] = Binding affinity to 23S rRNA U1061A mutant (unknown origin) by mass spectrometry
[15] = molecular target: Proto-oncogene tyrosine-protein kinase Src (Homo sapiens, UniProt P12931); assay: Inhibition of c-Src (unknown origin) using biotin-KVEKIGEGTYGVVYK as substrate by ELISA
[16] = molecular target: T4, Tyrosine-protein phosphatase non-receptor type 1 (Homo sapiens, UniProt P18031); assay: Inhibition of PTP1B (unknown origin) using pNPP as substrate measured every 30 secs for 15 mins by Michaelis-Menten plot analysis
T4 sequence (P18031 whole entry): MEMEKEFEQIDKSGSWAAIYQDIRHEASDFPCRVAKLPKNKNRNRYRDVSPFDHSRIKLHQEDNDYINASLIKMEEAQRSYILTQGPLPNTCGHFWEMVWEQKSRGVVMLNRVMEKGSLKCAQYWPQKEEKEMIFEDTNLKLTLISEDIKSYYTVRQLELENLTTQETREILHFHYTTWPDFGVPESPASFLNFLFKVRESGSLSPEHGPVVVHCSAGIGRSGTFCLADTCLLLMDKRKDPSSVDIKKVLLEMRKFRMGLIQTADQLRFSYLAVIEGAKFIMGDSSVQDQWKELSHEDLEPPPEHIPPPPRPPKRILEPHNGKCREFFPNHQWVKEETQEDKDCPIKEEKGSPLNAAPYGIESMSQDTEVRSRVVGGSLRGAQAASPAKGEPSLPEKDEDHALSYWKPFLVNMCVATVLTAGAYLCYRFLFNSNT

[17] = molecular target: CDK2/Cyclin A2 (Homo sapiens, UniProt P24941); assay: Inhibition of CDK2/Cyclin A (unknown origin) using histone H1 as substrate by scintillation counting method; assay type: protein-complex assay
[18] = Binding affinity to FKBP (unknown origin) by fluorescence-based assay; set-up: species or system Homo sapiens
[19] = Antagonist activity at IL-2/IL-2RA (unknown origin) assessed as reduction in IL-2/IL-2RA protein-protein interaction by scintillation proximity assay; set-up: species or system Homo sapiens

Sequence of Proto-oncogene tyrosine-protein kinase Src (P12931 2-536 limits assumed): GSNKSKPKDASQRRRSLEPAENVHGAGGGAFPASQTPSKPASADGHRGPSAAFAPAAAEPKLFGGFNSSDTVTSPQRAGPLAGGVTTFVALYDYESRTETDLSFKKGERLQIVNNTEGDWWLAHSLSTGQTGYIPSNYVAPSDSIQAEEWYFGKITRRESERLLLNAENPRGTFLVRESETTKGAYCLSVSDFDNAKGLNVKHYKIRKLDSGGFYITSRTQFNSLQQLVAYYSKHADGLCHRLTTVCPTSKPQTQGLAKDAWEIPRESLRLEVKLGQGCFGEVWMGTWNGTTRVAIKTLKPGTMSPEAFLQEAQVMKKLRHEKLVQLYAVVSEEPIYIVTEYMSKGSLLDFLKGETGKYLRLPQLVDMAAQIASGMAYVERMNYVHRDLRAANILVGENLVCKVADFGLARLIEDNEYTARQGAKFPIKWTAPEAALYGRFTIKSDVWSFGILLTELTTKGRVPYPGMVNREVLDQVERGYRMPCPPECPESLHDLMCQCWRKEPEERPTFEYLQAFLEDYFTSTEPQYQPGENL
Sequence of Peptidyl-prolyl cis-trans isomerase B (P23284 whole entry): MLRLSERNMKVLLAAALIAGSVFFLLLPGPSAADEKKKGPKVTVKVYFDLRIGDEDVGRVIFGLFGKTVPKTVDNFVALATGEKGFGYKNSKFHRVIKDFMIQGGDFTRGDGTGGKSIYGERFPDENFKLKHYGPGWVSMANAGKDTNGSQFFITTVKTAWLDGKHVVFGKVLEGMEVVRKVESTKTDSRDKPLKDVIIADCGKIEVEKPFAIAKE
Sequence of Peptidyl-prolyl cis-trans isomerase A (P62937 whole entry): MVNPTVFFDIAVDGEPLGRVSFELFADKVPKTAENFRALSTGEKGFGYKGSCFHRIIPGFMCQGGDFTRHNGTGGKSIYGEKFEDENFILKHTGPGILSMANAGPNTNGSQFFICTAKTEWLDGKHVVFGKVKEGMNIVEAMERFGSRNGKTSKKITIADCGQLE
Sequence of Bcl-2-like protein 1 (Q07817 whole entry): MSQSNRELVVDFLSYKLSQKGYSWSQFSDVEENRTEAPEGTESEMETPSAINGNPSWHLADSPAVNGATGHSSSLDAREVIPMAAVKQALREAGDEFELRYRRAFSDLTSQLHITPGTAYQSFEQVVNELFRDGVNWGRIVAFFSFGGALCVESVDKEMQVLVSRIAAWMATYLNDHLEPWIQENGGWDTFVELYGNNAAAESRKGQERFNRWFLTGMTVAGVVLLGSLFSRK

In the case of `C#Cc1ccc(N2CCNCC2)cc1`, the IC50 [1] is reported as 43 µM.

`CN(C)c1ncnc2nc[nH]c12` [DIMETHYLADENINE] showed an IC50 [2] of 1500 µM.

Work on `O=C(CCC1CCCC1)N1CCCC1` yielded an IC50 [3] of 280 µM.

`N=C(N)c1ccccc1` [BENZAMIDINE] showed a Ki [4] of 22 µM.

`COC(=O)[C@H]1C[C@H](O[C@@H]2O[C@H](CO)[C@H](O)[C@H](O[C@@H](CC3CCCCC3)C(=O)O)[C@H]2OC(=O)c2ccccc2)[C@H](O[C@@H]2O[C@@H](C)[C@@H](O)[C@@H](O)[C@@H]2O)[C@@H](C)C1` gave a Kd [5] of 1.9 µM.

`O=CN1CCCC1` showed an IC50 [6] greater than 5000 µM, an IC50 [7] greater than 5000 µM and an IC50 [8] greater than 5000 µM.

`O=C1OCC/C1=C\Nc1ccccc1` showed a Kd [9] of 150 µM.

Compound `COC(=O)[C@@H]1CCCCN1C(=O)C(=O)c1cc(OC)c(OC)c(OC)c1` has a Kd [10] of 2 µM.

`CC1(C)CCN(c2ccc(C(=O)NS(=O)(=O)c3ccc(NCCSc4ccccc4)c([N+](=O)[O-])c3)cc2)CC1` showed an IC50 [11] of 0.0788 µM.

`COC(=O)c1c(C)n[nH]c1-c1ccco1` showed an IC50 [2] of 1000 µM.

With `CNC(=O)NC(=N)NCCC[C@H](NC(=O)CN=[N+]=[N-])C(=O)N(Cc1ccccc1)Cc1ccccc1` the IC50 [12] was 0.58 µM.

Compound `C[C@@H]1NC(=O)N[C@@H]1CCCCCC(=O)O` has a Ki [13] of 4.1e-07 µM.

For `CSc1ccccc1C1CCCN1C(=O)C(NC(=O)NCc1ccc(N)cc1)c1ccccc1` (stereo not drawn), the IC50 [6] was 0.08 µM, the IC50 [7] was 0.2 µM and the IC50 [8] was 0.1 µM.

Compound `NCC[C@@H](NC(=O)c1ccco1)C(=O)N1CCNCC1` has a Kd [14] greater than 100 µM.

Work on `CCCCCC(=O)O` [HEXANOATE] yielded a Ki [13] of 260 µM.

Compound `CCn1c2ccccc2c2cc(/C=N/OCCO/N=C/c3ccc(O)c(O)c3)ccc21` has an IC50 [15] of 0.064 µM.

`O=C(O)c1ccc2nc(O)c(O)nc2c1` gave a Kd [14] greater than 100 µM.

For `COC(=O)c1c(O)cccc1OC/C=C/c1ccc(F)c(-c2cc(C(=O)O)no2)c1`, the Ki [16] was 7 µM.

Compound `O=C1Nc2ccc(Cl)cc2C1=O` has an IC50 [17] greater than 1000 µM.

For `COc1cc(C(=O)C(=O)N2CCCC[C@H]2C(=O)OCCCc2ccc(C(=O)Nc3ccc(O)cc3)cc2O)cc(OC)c1OC`, the Kd [18] was 0.049 µM.

For `CCn1c2ccccc2c2cc(/C=N/OC)ccc21`, the IC50 [15] was 40 µM.

For `CC1(C)CCN(c2ccc(C(=O)S)cc2)CC1`, the IC50 [11] was greater than 100 µM.

With `NCC[C@@H](NC(=O)c1ccc(-c2cccc(NC(=O)c3ccc4nc(O)c(O)nc4c3)c2)o1)C(=O)N1CCNCC1` the Kd [14] was 6.5 µM.

For `CC(C)C[C@@H](N=C(N)N)C(=O)NCC(=O)N1CCC(c2cc(-c3cccc(Cl)c3Cl)nn2C)CC1`, the IC50 [19] was 3 µM.
